Assay results: patent US20170152245A1 (National Taiwan University, priority 2015, published 2017)
pIC50: −log10 of the molar value.

Key:
mice = experiment: OVA-induced asthmatic mice (sensitization and airway challenge); format: in vivo
Procedure: Mice were divided into groups receiving the following treatments: (1) sham sensitization plus challenge with phosphate buffered saline (PBS) (n=5), (2) sensitization plus challenge with OVA (Sigma A5503; Sigma, St. Louis, Mo.) (n=10), and (3 and 4) sensitization with OVA (i.p.) plus challenge with and nstpbp5185 (10 or 20 mg/kg) (n=6-7). […] Mice were challenged through the airway with 100 μg OVA in 40 μL PBS buffer via intranasal administration (i.n.) days 36, 37 and 38 and AHR induced by methacholine (MCh) were measured at day 39. Animals were sacrificed 24 h after the AHR measurement. The mice were placed in the main chamber of a whole body plethysmograph (Buxco Electronics, Inc., Sharon, Conn., USA) and challenged with aerosolized 0.9% normal saline accompanied by increasing doses of methacholine (6.25-50 mg/ml). Each nebulization lasted for 3 min, and after each nebulization, recordings were taken and averaged for the 3 min. The Penh values were determined, and the data were expressed as Penh values.
Serum were collected and stored at −70° C. after centrifugation (3000 rpm, 10 min). The amount of OVA-specific IgE was determined by ELISA. Briefly, 96-well plates were coated with OVA at 10 μg/well. After the plates were blocked, 100 μl/well of diluted sera was added, and the plates were incubated at room temperature for 2 h or at 4° C. overnight. After incubation, the plates were washed five times with PBS with Tween 20 buffer, the secondary antibody (biotinylated rat anti-mouse IgE; AbD Serotec, Kidlington, UK) was added and plates were incubated for 1 h at room temperature. […] The avidin-horseradish peroxidase was removed by washing with PBS with Tween 20 buffer, and the bound enzyme substrate was detected by adding tetramethylbenzidine reagent (KPL, Gaithersburg, Md., USA). […] Optical density was measured at 450 nm (550 nm was used as a reference filter) in a microplate autoreader (Anthos Reader 2010; Anthos Labtec Instruments GmbH, Salzburg, Austria).

rat carotid artery = experiment: Balloon-injury rat carotid artery model (neointima formation); format: in vivo; details: 1 or 2 mg/kg/day intraperitoneally for 2 weeks; rats
Procedure: We used the established rat carotid artery (CA) model of balloon angioplasty to examine the in vivo arterial response to injury^20. Briefly, male Wistar rats weighing 350-400 g were anesthetized with intraperitoneal pentobarbital (50 mg/kg), and the left CA was exposed. A Fogarty 2F embolectomy balloon catheter was inserted into the left external carotid artery through arteriotomy incision and advanced to the aortic arch. The balloon was inflated and withdrawn three times with rotation at the same pressure. Followed by removal of the catheter, the external carotid artery was ligated and the wound closed. Animals were given standard rat chow and tap water, and i.p. administered 1 and 2 mg/kg or vehicle daily for 2 weeks, at which time they were sacrificed, and the sections from both the right and left (collateral control group) CA were harvested to fix with 4% paraformaldehyde in PBS overnight for study. All procedures involving animal experiments were approved by the Institutional Animal Care and Use Committee of Collagen of Medicine, National Taiwan University.
We further determined the inhibitory effect of nstpbp5185 on neointima formation after carotid artery injury. […] (FIG. 16G) Data are quantified by the neointima/media ratio of common carotid arteries after balloon injury. […]

Thromboxane synthase = biological target: T1, Thromboxane synthase (Homo sapiens, UniProt P24557); experiment: Thromboxane synthase activity (Table III comparison); format: biochemical
T1 construct: MDS
T1 sequence (P24557 1-533): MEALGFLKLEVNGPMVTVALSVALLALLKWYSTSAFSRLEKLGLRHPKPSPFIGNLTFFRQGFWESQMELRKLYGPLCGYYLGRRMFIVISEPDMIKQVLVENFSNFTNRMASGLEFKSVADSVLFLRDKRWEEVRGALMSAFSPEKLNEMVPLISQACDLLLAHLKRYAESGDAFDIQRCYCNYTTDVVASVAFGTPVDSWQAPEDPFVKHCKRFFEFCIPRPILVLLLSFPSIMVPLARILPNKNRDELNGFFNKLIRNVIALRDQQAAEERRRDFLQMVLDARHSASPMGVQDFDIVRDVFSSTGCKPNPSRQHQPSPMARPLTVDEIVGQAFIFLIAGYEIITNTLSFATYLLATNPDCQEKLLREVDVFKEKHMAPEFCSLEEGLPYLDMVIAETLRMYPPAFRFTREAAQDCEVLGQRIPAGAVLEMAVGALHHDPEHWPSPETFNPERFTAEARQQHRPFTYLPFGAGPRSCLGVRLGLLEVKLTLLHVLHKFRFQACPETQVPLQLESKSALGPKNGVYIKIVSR
Procedure: These kinases or enzymatic assays were performed by MDS according to the standardized methods

mouse PRP = experiment: Ex vivo mouse PRP aggregation caused by U46619; format: in vivo, mice; details: 10 μg/g i.v.; U46619 0.125 μM; compared to nstpbp5185
Procedure: Mice were i.v. injected with vehicle, nstpbp5185 (10 μg/g) or Ctkf6f2 (10 μg/g). The blood samples were collected within 10 mins by intracardiac puncture for PRP, and U46619 (0.125 μM) was added. Platelet aggregation was measured turbidimetrically using platelet aggregometer. Shown are representative of three independent experiments.
Furthermore, the platelet aggregation was evaluated on ex vivo mouse model. The mouse was i.v. administered with compound 5185 (10 μg/g) or Ctkf6f2 (10 μg/g), compared to the vehicle-treated control. The blood was collected and evaluated for its response to U46619 (0.125 μM) on the aggregometer (FIG. 10).

Row | Compound | cellular infiltration of the airways (mice; 10 and 20 mg/kg/day) | OVA-specific IgE, IgG2a and IgG1 levels in serum (mice; 10 or 20 mg/kg) | asthma symptoms after OVA challenge (mice; Group 3 and Group 4 (10 or 20 mg/kg)) | N/M ratio (neointima/media) (rat carotid artery) | Thromboxane synthase (Thromboxane synthase; Table III arrows) | pIC50 (Thromboxane synthase; read-out: Thromboxane synthase inhibition IC50) | inhibition of platelet aggregation of PRP induced by U46619, ex vivo (mouse PRP)
1 | Cc1ccc(-c2nc3ccccc3n2Cc2ccccc2)o1 [Example 6, 1-Benzyl-2-(5-methyl-2-furyl)benzimidazole] | reduced | significant reduction | alleviated symptoms | significantly inhibited | ↓ | 5.00 | –
2 | Cc1ccc(-c2nc3ccc(F)cc3n2Cc2cccc(F)c2)o1 [Ctkf6f2, 6-fluoro-1-(3-fluorobenzyl)-2-(5-methyl-2-furyl)benzimidazole] | – | – | – | – | – | – | superior inhibition
